This passage reports IC50 results from patent publication US10316049B2, “Tank-binding kinase inhibitor compounds” (Gilead Sciences, Inc., priority 2015, dated 2019).

The target in one assay is T1, IKKε (Homo sapiens, UniProt Q14164).
T1 construct: TBK1 and IKKε were expressed and purified as full length recombinant proteins; made in house
T1 sequence (Q14164 1-716): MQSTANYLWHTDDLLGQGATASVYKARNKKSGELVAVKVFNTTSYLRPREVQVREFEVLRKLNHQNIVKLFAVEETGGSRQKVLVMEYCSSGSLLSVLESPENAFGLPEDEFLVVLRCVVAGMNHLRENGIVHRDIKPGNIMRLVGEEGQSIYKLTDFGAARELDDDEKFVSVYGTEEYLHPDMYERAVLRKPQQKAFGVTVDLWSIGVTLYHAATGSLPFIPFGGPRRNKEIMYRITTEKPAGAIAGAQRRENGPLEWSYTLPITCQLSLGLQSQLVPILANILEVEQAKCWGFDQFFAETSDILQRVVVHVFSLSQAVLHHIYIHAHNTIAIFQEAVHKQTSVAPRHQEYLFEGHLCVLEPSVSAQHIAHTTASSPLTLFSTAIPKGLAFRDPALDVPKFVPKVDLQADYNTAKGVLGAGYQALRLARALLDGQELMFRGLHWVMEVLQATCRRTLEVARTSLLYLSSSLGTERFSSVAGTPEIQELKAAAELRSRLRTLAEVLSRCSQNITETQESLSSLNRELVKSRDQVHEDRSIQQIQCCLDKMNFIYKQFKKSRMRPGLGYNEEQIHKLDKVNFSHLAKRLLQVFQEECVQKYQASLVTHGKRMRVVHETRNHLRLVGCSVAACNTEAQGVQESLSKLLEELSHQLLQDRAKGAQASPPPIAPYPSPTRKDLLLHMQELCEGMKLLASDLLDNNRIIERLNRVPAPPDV
The experiment in a line: TR-FRET enzymatic activity assay, IKKε. Further: full length recombinant IKKε at 0.3 nM. It counts as biochemical. The conditions noted are these: read-out: IKKϵ IC50. Put shortly:
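IC50 values are geometric means of at least four determinations, fitted to a four-parameter curve after normalising to 1 μM staurosporine and DMSO. Signal: Eu-cryptate anti-phospho antibody plus 125 nM streptavidin-XL665 on a biotinylated peptide. Full-length recombinant enzyme reacted 240 min, 25 °C, then EDTA-quenched.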
(In TR-FRET formats the signal depends on donor and acceptor labels being close together.)

In a further assay the target is T2, TBK1 (Homo sapiens, UniProt Q9UHD2).
T2 construct: TBK1 and IKKε were expressed and purified as full length recombinant proteins; made in house
T2 sequence (Q9UHD2 1-729): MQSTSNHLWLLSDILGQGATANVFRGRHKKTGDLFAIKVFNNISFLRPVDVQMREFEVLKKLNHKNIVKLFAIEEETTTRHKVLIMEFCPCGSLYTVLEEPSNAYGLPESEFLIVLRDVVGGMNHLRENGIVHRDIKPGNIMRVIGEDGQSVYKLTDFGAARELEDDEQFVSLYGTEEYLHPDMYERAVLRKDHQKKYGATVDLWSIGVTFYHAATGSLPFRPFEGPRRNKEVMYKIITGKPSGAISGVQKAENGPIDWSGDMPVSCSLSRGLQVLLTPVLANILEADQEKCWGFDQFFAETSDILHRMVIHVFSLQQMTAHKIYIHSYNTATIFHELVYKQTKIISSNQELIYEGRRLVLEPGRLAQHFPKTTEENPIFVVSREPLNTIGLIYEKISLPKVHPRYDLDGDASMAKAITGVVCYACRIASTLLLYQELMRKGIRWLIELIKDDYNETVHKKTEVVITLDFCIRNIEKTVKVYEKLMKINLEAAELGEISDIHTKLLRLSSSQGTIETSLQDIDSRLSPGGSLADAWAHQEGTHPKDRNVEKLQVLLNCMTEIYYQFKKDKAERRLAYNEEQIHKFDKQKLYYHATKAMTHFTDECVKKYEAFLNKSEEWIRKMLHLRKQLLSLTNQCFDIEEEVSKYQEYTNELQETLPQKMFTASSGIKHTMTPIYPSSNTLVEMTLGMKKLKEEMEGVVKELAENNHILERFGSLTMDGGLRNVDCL
The experiment in a line: TR-FRET enzymatic activity assay, TBK1. Further: full length recombinant TBK1 at 2.5 nM. The format is biochemical. Put shortly:
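TR-FRET detected phosphorylation of a biotinylated serine/threonine peptide using 125 nM streptavidin XL665 plus europium-labelled anti-phospho antibody. Reactions with full-length recombinant kinase ran 240 min at 25 °C before EDTA quench. Values are geometric-mean IC50s (n ≥ 4) from four-parameter dose-response fits against staurosporine and DMSO controls.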

For the compound `N#Cc1cc(-c2ccnc(NC(=O)C3CC3)c2)ccc1N1CCC[C@@H]1C(N)=O` [Example 95, (R)-1-(2-cyano-4-(2-(cyclopropanecarboxamido)pyridin-4-yl)phenyl)pyrrolidine-2-carboxamide], the figures for the IC50 on IKKε and against TBK1 were over 1000 nM and 258 nM, respectively.
The like results for `N#Cc1cc(-c2cc(NC(=O)[C@@H]3C[C@H]3c3cccnc3)ncn2)ccc1O[C@H]1CCN(C(=O)CO)CC1(F)F` [Example 129, (1,2-Trans)-N-(6-(3-cyano-4-(((S)-3,3-difluoro-1-(2-hydroxyacetyl)piperidin-4-yl)oxy)phenyl)pyrimidin-4-yl)-2-(pyridin-3-yl)cyclopropane-1-carboxamide] were, in that order, 32.2 nM and 9.3 nM.
Consider `N#CCC(=O)N1CC[C@H](Oc2ccc(-c3cc(NC(=O)C4CC4)ncn3)cc2C#N)C(F)(F)C1` [Example 153, (S)—N-(6-(3-cyano-4-((1-(2-cyanoacetyl)-3,3-difluoropiperidin-4-yl)oxy)phenyl)pyrimidin-4-yl)cyclopropanecarboxamide], for which the results for the IC50 at IKKε and against TBK1 were 140 nM and 23.6 nM, respectively.
Turning to `N#Cc1cc(-c2ccnc(NC(=O)[C@@H]3C[C@H]3c3cccnc3)c2)ccc1O[C@H]1CCN(C(=O)CO)C[C@H]1F` [Example 135, (1R,2R)—N-(4-(3-cyano-4-(((3R,4S)-3-fluoro-1-(2-hydroxyacetyl)piperidin-4-yl)oxy)phenyl)pyridin-2-yl)-2-(pyridin-3-yl)cyclopropane-1-carboxamide], the half-inhibitory concentration (IC50) at IKKε worked out at 27.4 nM; against TBK1, 21.4 nM.
Regarding `N#Cc1cc(-c2cc(NC(=O)C3CC3)ncn2)ccc1C(=O)NCC(F)F` [Example 53, 2-cyano-4-(6-(cyclopropanecarboxamido)pyrimidin-4-yl)-N-(2,2-difluoroethyl)benzamide], the results for the IC50 on IKKε and against TBK1 were over 1000 nM and 762 nM, respectively.
In the case of `CON(C)C(=O)[C@@H]1C[C@H]1C(=O)Nc1cc(-c2ccc(OC3CCOCC3)c(C#N)c2)ccn1` (relative stereo) [Example 38], the figures for the half-inhibitory concentration (IC50) at IKKε and against TBK1 were 253 nM and 305 nM, respectively.
The like results for `N#Cc1cc(-c2ccnc(NC(=O)C3(F)CC3)c2)ccc1O[C@H]1CCN(C(=O)CO)C[C@H]1F` [Example 78, N-(4-(3-Cyano-4-(((3R,4S)-3-fluoro-1-(2-hydroxyacetyl)piperidin-4-yl)oxy)phenyl)pyridin-2-yl)-1-fluorocyclopropane-1-carboxamide] were, in that order, 294 nM and 400 nM.
In the case of `N#Cc1cc(-c2ccnc(NC(=O)[C@H]3[C@@H]4CNC[C@@H]43)c2)ccc1OC1CCOCC1` [Example 124, (1R,5S,6R-rel)-N-(4-(3-cyano-4-((tetrahydro-2H-pyran-4-yl)oxy)phenyl)pyridin-2-yl)-3-azabicyclo[3.1.0]hexane-6-carboxamide], the IC50 on IKKε worked out at 316 nM; against TBK1, 628 nM.
The like results for `N#Cc1cc(-c2cc(NC(=O)C3CC3)ncn2)ccc1O[C@H]1CCN(C(=O)CCO)CC1(F)F` [Example 154, (S)—N-(6-(3-cyano-4-((3,3-difluoro-1-(3-hydroxypropanoyl)piperidin-4-yl)oxy)phenyl)pyrimidin-4-yl)cyclopropanecarboxamide] were, in that order, 387 nM and 41.5 nM.
The like results for `N#Cc1cc(-c2cc(NC(=O)C3CC3)ncn2)ccc1O[C@@H]1CCN(C(=O)CO)CC1(F)F` [Example 110, (R)—N-(6-(3-cyano-4-((3,3-difluoro-1-(2-hydroxyacetyl)piperidin-4-yl)oxy)phenyl)pyrimidin-4-yl)cyclopropanecarboxamide] were, in that order, 737 nM and 317 nM.
On the same counts, the results for `N#Cc1cc(-c2ccnc(NC(=O)C3CC3)c2)ccc1N1CC[C@@H](O)C1` [Example 17, (R)—N-(4-(3-cyano-4-(3-hydroxypyrrolidin-1-yl)phenyl)pyridin-2-yl)cyclopropanecarboxamide] are 232 nM and 41.6 nM.
For `N#Cc1cc(-c2ccnc(NC(=O)C3C[C@@H]3F)c2)ccc1O[C@H]1CCN(C(=O)CO)C[C@H]1F` (stereo partly drawn) [Example 57, (1,2-trans)-N-(4-(3-cyano-4-(((3R,4S)-3-fluoro-1-(2-hydroxyacetyl)piperidin-4-yl)oxy)phenyl)pyridin-2-yl)-2-fluorocyclopropane-1-carboxamide], the figures for the IC50 at IKKε and against TBK1 were 26.2 nM and 17 nM, respectively.
On to `Cc1n[nH]c(C(=O)N2CC[C@H](Oc3ccc(-c4ccnc(NC(=O)C5CC5C)c4)cc3C#N)[C@H](F)C2)n1` (stereo partly drawn) [Example 75, N-(4-(3-Cyano-4-(((3R,4S)-3-fluoro-1-(3-methyl-1H-1,2,4-triazole-5-carbonyl)piperidin-4-yl)oxy)phenyl)pyridin-2-yl)-2-methylcyclopropane-1-carboxamide], for which the values for the IC50 on IKKε and against TBK1 were 7.1 nM and 6.1 nM, respectively.
On the same counts, the results for `COc1cc(-c2ccnc(NC(=O)C3CC3)c2)cc(C#N)c1OC1CCOCC1` [Example 7, N-(4-(3-cyano-5-methoxy-4-((tetrahydro-2H-pyran-4-yl)oxy)phenyl)pyridin-2-yl)cyclopropanecarboxamide] are over 1000 nM and 492 nM.
For the compound `N#Cc1cc(-c2cc(NC(=O)C3CC3)ncn2)ccc1O[C@H]1CCN(C(=O)[C@@H]2CCC(=O)N2)CC1(F)F` [Example 152, N-(6-(3-cyano-4-(((S)-3,3-difluoro-1-((S)-5-oxopyrrolidine-2-carbonyl)piperidin-4-yl)oxy)phenyl)pyrimidin-4-yl)cyclopropanecarboxamide], the IC50 at IKKε is 53.3 nM; on TBK1, 9.4 nM.
The like results for `Cc1cc([C@@H]2C[C@H]2C(=O)Nc2cc(-c3ccc(OC4CCOCC4)c(C#N)c3)ccn2)on1` (relative stereo) [Example 47, (1,2-trans)-N-(4-(3-cyano-4-((tetrahydro-2H-pyran-4-yl)oxy)phenyl)pyridin-2-yl)-2-(3-methylisoxazol-5-yl)cyclopropane-1-carboxamide] were, in that order, 269 nM and 29.4 nM.
Regarding `CCC[C@H]1C[C@@H]1C(=O)Nc1cc(-c2ccc(OC3CCOCC3)c(C#N)c2)ccn1` (relative stereo) [Example 91, (1,2-trans)-N-(4-(3-cyano-4-((tetrahydro-2H-pyran-4-yl)oxy)phenyl)pyridin-2-yl)-2-propylcyclopropane-1-carboxamide], the concentration for half-maximal inhibition (IC50) on IKKε is 266 nM; at TBK1 it was 44.1 nM.
On the same counts, the results for `Cn1cc([C@@H]2C[C@H]2C(=O)Nc2cc(-c3ccc(O[C@H]4CCN(C(=O)CO)C[C@H]4F)c(C#N)c3)ccn2)cn1` [Example 90, (1,2-trans)-N-(4-(3-cyano-4-(((3R,4S)-3-fluoro-1-(2-hydroxyacetyl)piperidin-4-yl)oxy)phenyl)pyridin-2-yl)-2-(1-methyl-1H-pyrazol-4-yl)cyclopropane-1-carboxamide] are 9.5 nM and 5.6 nM.
Regarding `N#Cc1cc(-c2ccnc(NC(=O)[C@@H]3C[C@@H]3CO)c2)ccc1O[C@H]1CCN(C(=O)CO)C[C@H]1F` [Example 74, (1,2-cis)-N-(4-(3-Cyano-4-(((3R,4S)-3-fluoro-1-(2-hydroxyacetyl)piperidin-4-yl)oxy)phenyl)pyridin-2-yl)-2-(hydroxymethyl)cyclopropane-1-carboxamide], the IC50 on IKKε amounted to 145 nM; against TBK1, 99.3 nM.

As usually defined, the IC50 is the concentration that gives 50% inhibition.
